Data published in PubChem BioAssay AID328 (DTP/NCI, 2004).
Where “and” joins values, the source holds several entries; their conditions need not be identical. Identical values can stand only once. Toxic doses and inconclusive results are not listed. The calls were made as follows: active = survival T/C of 150% or more; inactive = T/C below 125% in these data.

System: BDF1 mice, P388 leukemia ip, median survival T/C
Assay: NCI In Vivo Anticancer Drug Screen. Data for tumor model P388 Leukemia (intraperitoneal) in B6D2F1 (BDF1) mice
Conditions: endpoint: median survival time, higher = longer survival
Procedure, shortened: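 Survival ratio, drug arm over vehicle arm, in mice with a transplanted tumour.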

Measured: T/C

C[n+]1ccc(Nc2ccc(NC(=O)c3ccc(Nc4cc[n+](C)c5ccc(N)cc45)cc3N)cc2)cc1
inactive: dose: 0.88 mg/kg/injection, schedule: Q04DX003 (ip), vehicle: saline with Tween-80 123 % of control | dose: 25.0 mg/kg/injection, schedule: Q01DX009 (ip), vehicle: Klucel (hydroxypropylcellulose) (HPC) 116 % of control | dose: 32.0 mg/kg/injection, schedule: Q01DX009 (ip), vehicle: saline with Tween-80 112 % of control | dose: 50.0 mg/kg/injection, schedule: Q01DX009 (ip), vehicle: saline 106 % of control | dose: 50.0 mg/kg/injection, schedule: Q01DX010 (ip), vehicle: saline 90 % of control
active: dose: 0.5 mg/kg/injection, schedule: Q01DX010 (ip), vehicle: saline 150 % of control | dose: 1.0 mg/kg/injection, schedule: Q01DX010 (ip), vehicle: saline 160 % of control | dose: 1.56 mg/kg/injection, schedule: Q01DX009 (ip), vehicle: Klucel (hydroxypropylcellulose) (HPC) 194 % of control | dose: 2.0 mg/kg/injection, schedule: Q01DX009 (ip), vehicle: saline with Tween-80 150 % of control | dose: 2.0 mg/kg/injection, schedule: Q01DX010 (ip), vehicle: saline 205 % of control | dose: 3.0 mg/kg/injection, schedule: Q04DX003 (ip), vehicle: saline with Tween-80 152 % of control | dose: 3.12 mg/kg/injection, schedule: Q01DX009 (ip), vehicle: Klucel (hydroxypropylcellulose) (HPC) 252 % of control and 216 % of control | dose: 3.12 mg/kg/injection, schedule: Q01DX009 (ip), vehicle: saline 169 % of control | dose: 3.6 mg/kg/injection, schedule: Q04DX003 (ip), vehicle: saline with Tween-80 154 % of control | dose: 4.0 mg/kg/injection, schedule: Q01DX009 (ip), vehicle: saline with Tween-80 229 % of control | dose: 4.0 mg/kg/injection, schedule: Q01DX010 (ip), vehicle: saline 300 % of control | dose: 5.56 mg/kg/injection, schedule: Q04DX003 (ip), vehicle: saline 168 % of control | dose: 5.6 mg/kg/injection, schedule: Q04DX003 (ip), vehicle: saline with Tween-80 159 % of control | dose: 6.25 mg/kg/injection, schedule: Q01DX009 (ip), vehicle: Klucel (hydroxypropylcellulose) (HPC) 266 % of control and 267 % of control | dose: 6.25 mg/kg/injection, schedule: Q01DX009 (ip), vehicle: saline 172 % of control | dose: 6.25 mg/kg/injection, schedule: Q01DX010 (ip), vehicle: saline 300 % of control | dose: 6.25 mg/kg/injection, schedule: Q04DX003 (ip), vehicle: saline 163 % of control | dose: 8.0 mg/kg/injection, schedule: Q01DX009 (ip), vehicle: saline with Tween-80 250 % of control | dose: 8.3 mg/kg/injection, schedule: Q04DX003 (ip), vehicle: saline with Tween-80 177 % of control | dose: 8.33 mg/kg/injection, schedule: Q04DX003 (ip), vehicle: saline 227 % of control | dose: 12.5 mg/kg/injection, schedule: Q01DX009 (ip), vehicle: Klucel (hydroxypropylcellulose) (HPC) 267 % of control and 199 % of control | dose: 12.5 mg/kg/injection, schedule: Q01DX009 (ip), vehicle: saline 172 % of control | dose: 12.5 mg/kg/injection, schedule: Q01DX010 (ip), vehicle: saline 300 % of control | dose: 12.5 mg/kg/injection, schedule: Q04DX003 (ip), vehicle: saline with Tween-80 209 % of control | dose: 12.5 mg/kg/injection, schedule: Q04DX003 (ip), vehicle: saline 200 % of control and 218 % of control and 186 % of control | dose: 16.0 mg/kg/injection, schedule: Q01DX009 (ip), vehicle: saline with Tween-80 250 % of control | dose: 18.7 mg/kg/injection, schedule: Q04DX003 (ip), vehicle: saline with Tween-80 263 % of control | dose: 25.0 mg/kg/injection, schedule: Q01DX009 (ip), vehicle: saline 172 % of control | dose: 25.0 mg/kg/injection, schedule: Q04DX003 (ip), vehicle: saline 272 % of control and 254 % of control | dose: 26.0 mg/kg/injection, schedule: Q04DX003 (ip), vehicle: saline with Tween-80 272 % of control | dose: 40.0 mg/kg/injection, schedule: Q04DX003 (ip), vehicle: saline with Tween-80 272 % of control | dose: 50.0 mg/kg/injection, schedule: Q04DX003 (ip), vehicle: saline 310 % of control | dose: 60.0 mg/kg/injection, schedule: Q04DX003 (ip), vehicle: saline with Tween-80 272 % of control
